Measured values: PubChem BioAssay AID2060510 (Molecular Pharmacology Branch, DTP, NCI, 2025)

System: 439559-082-T-J2-PDC spheroids viability
Assay: Anticancer human tumor 439559-082-T-J2-PDC patient-derived colon adenocarcinoma cell line growth inhibition [GQUAD]
Conditions: for IC50: curve of first compound; for viability, T/C: stronger effect = lower value; active = viability on the fitted dose curve at most 10% of control; inactive = the rest
Summary of the method: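 Multi-cell-type spheroids of tumor cells with HUVEC and mesenchymal stem cells, treated with drug combinations. Concentrations descend in half-log steps from near clinical Cmax, or from 10 microM where Cmax is unknown; viability read-out.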

[1] = second compound 0.0316 µM, first compound 0.0316 µM
[2] = second compound 0.0316 µM, first compound 0.1 µM
[3] = second compound 0.0316 µM, first compound 0.316 µM
[4] = second compound 0.0316 µM, first compound 1 µM
[5] = second compound 0.0316 µM, first compound 3.16 µM
[6] = second compound 0.0316 µM, first compound 10 µM
[7] = second compound 0.1 µM, first compound 0.0316 µM
[8] = second compound 0.1 µM, first compound 0.1 µM
[9] = second compound 0.1 µM, first compound 0.316 µM
[10] = second compound 0.1 µM, first compound 1 µM
[11] = second compound 0.1 µM, first compound 3.16 µM
[12] = second compound 0.1 µM, first compound 10 µM
[13] = second compound 0.316 µM, first compound 0.0316 µM
[14] = second compound 0.316 µM, first compound 0.1 µM
[15] = second compound 0.316 µM, first compound 0.316 µM
[16] = second compound 0.316 µM, first compound 1 µM
[17] = second compound 0.316 µM, first compound 3.16 µM
[18] = second compound 0.316 µM, first compound 10 µM
[19] = second compound 1 µM, first compound 0.0316 µM
[20] = second compound 1 µM, first compound 0.1 µM
[21] = second compound 1 µM, first compound 0.316 µM
[22] = second compound 1 µM, first compound 1 µM
[23] = second compound 1 µM, first compound 3.16 µM
[24] = second compound 1 µM, first compound 10 µM
[25] = second compound 3.16 µM, first compound 0.0316 µM
[26] = second compound 3.16 µM, first compound 0.1 µM
[27] = second compound 3.16 µM, first compound 0.316 µM
[28] = second compound 3.16 µM, first compound 1 µM
[29] = second compound 3.16 µM, first compound 3.16 µM
[30] = second compound 3.16 µM, first compound 10 µM
[31] = second compound 10 µM, first compound 0.0316 µM
[32] = second compound 10 µM, first compound 0.1 µM
[33] = second compound 10 µM, first compound 0.316 µM
[34] = second compound 10 µM, first compound 1 µM
[35] = second compound 10 µM, first compound 3.16 µM
[36] = second compound 10 µM, first compound 10 µM
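Note: spheroids exposed to the agents for 7 days before readout.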
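Throughout, for viability, T/C: percent of luminescence signal in DMSO vehicle wells taken as 100% viability.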

C=CC(=O)N1CCN(c2nc(=O)n(-c3c(C)ccnc3C(C)C)c3nc(-c4c(O)cccc4F)c(F)cc23)C(C)C1 (stereo not drawn) + Cc1cnc(CNC(=O)c2c(=O)c3ccc(N4CCCN(C)CC4)nc3n3c2sc2ccccc23)cn1
inactive: viability, T/C [1] 116% | viability, T/C [2] 95.1% | viability, T/C [3] 103% | viability, T/C [4] 110% | viability, T/C [5] 95.6% | viability, T/C [6] 111% | viability, T/C [7] 99.3% | viability, T/C [8] 99.1% | viability, T/C [9] 87.3% | viability, T/C [10] 87.9% | viability, T/C [11] 93% | viability, T/C [12] 93.2% | viability, T/C [13] 95.2% | viability, T/C [14] 92.3% | viability, T/C [15] 84.9% | viability, T/C [16] 91.2% | viability, T/C [17] 91.1% | viability, T/C [18] 93% | viability, T/C [19] 73.7% | viability, T/C [20] 83% | viability, T/C [21] 76.1% | viability, T/C [22] 75.4% | viability, T/C [23] 87.9% | viability, T/C [24] 75.9% | viability, T/C [25] 76.9% | viability, T/C [26] 73% | viability, T/C [27] 71.5% | viability, T/C [28] 71.1% | viability, T/C [29] 78% | viability, T/C [30] 72.9% | viability, T/C [31] 59.2% | viability, T/C [32] 74.7% | viability, T/C [33] 75.8% | viability, T/C [34] 76.2% | viability, T/C [35] 77.1% | viability, T/C [36] 72.6%
> 10 µM: IC50 (second compound 0.0316 µM) | IC50 (second compound 0.1 µM) | IC50 (second compound 0.316 µM) | IC50 (second compound 1 µM) | IC50 (second compound 3.16 µM) | IC50 (second compound 10 µM)

CC(C)n1c(=O)n(C)c2cnc3cc(F)c(-c4ccc(OCCCN5CCCCC5)nc4)cc3c21 + Cc1cnc(CNC(=O)c2c(=O)c3ccc(N4CCCN(C)CC4)nc3n3c2sc2ccccc23)cn1
5.99 µM: IC50 (second compound 10 µM)
> 10 µM: IC50 (second compound 0.0316 µM) | IC50 (second compound 0.1 µM) | IC50 (second compound 0.316 µM) | IC50 (second compound 1 µM) | IC50 (second compound 3.16 µM)
inactive: viability, T/C [1] 91.2% | viability, T/C [2] 77.3% | viability, T/C [3] 88.8% | viability, T/C [4] 90.8% | viability, T/C [5] 94.2% | viability, T/C [6] 82.6% | viability, T/C [7] 77.9% | viability, T/C [8] 76.1% | viability, T/C [9] 60.8% | viability, T/C [10] 68.2% | viability, T/C [11] 71% | viability, T/C [12] 62.9% | viability, T/C [13] 73.3% | viability, T/C [14] 67.6% | viability, T/C [15] 59.1% | viability, T/C [16] 66.3% | viability, T/C [17] 71.6% | viability, T/C [18] 53% | viability, T/C [19] 71.8% | viability, T/C [20] 55.7% | viability, T/C [21] 66.7% | viability, T/C [22] 62.4% | viability, T/C [23] 62.9% | viability, T/C [24] 42.7% | viability, T/C [25] 56.9% | viability, T/C [26] 60.6% | viability, T/C [27] 67.6% | viability, T/C [28] 60.8% | viability, T/C [29] 58.1% | viability, T/C [30] 46.1% | viability, T/C [31] 59.8% | viability, T/C [32] 57.2% | viability, T/C [33] 60.3% | viability, T/C [34] 59.2% | viability, T/C [35] 58% | viability, T/C [36] 39.8%

Cc1cccc(N(C)C(=O)C2C(O)CCN2c2nc(C)cc(C(F)(F)F)c2C#N)c1 (stereo not drawn) + Cc1cnc(CNC(=O)c2c(=O)c3ccc(N4CCCN(C)CC4)nc3n3c2sc2ccccc23)cn1
inactive: viability, T/C [1] 101% | viability, T/C [2] 95.6% | viability, T/C [3] 82.5% | viability, T/C [4] 99% | viability, T/C [5] 95.2% | viability, T/C [6] 101% | viability, T/C [7] 117% | viability, T/C [8] 93.5% | viability, T/C [9] 90.2% | viability, T/C [10] 85.4% | viability, T/C [11] 93.3% | viability, T/C [12] 92.6% | viability, T/C [13] 90.8% | viability, T/C [14] 86.3% | viability, T/C [15] 79.3% | viability, T/C [16] 82.2% | viability, T/C [17] 92.2% | viability, T/C [18] 84.3% | viability, T/C [19] 83.1% | viability, T/C [20] 81.2% | viability, T/C [21] 74.2% | viability, T/C [22] 76.3% | viability, T/C [23] 80.5% | viability, T/C [24] 74.8% | viability, T/C [25] 73.4% | viability, T/C [26] 72.1% | viability, T/C [27] 71.9% | viability, T/C [28] 69.3% | viability, T/C [29] 72.7% | viability, T/C [30] 66.3% | viability, T/C [31] 72.1% | viability, T/C [32] 70.2% | viability, T/C [33] 68.5% | viability, T/C [34] 67.7% | viability, T/C [35] 72.5% | viability, T/C [36] 63%
> 10 µM: IC50 (second compound 0.0316 µM) | IC50 (second compound 0.1 µM) | IC50 (second compound 0.316 µM) | IC50 (second compound 1 µM) | IC50 (second compound 3.16 µM) | IC50 (second compound 10 µM)

O=C(c1cc(Cc2n[nH]c(=O)c3ccccc23)ccc1F)N1CCN(C(=O)C2CC2)CC1 + Cc1cnc(CNC(=O)c2c(=O)c3ccc(N4CCCN(C)CC4)nc3n3c2sc2ccccc23)cn1
inactive: viability, T/C [1] 94% | viability, T/C [2] 99.1% | viability, T/C [3] 97.3% | viability, T/C [4] 94% | viability, T/C [5] 96.8% | viability, T/C [6] 98.2% | viability, T/C [7] 97% | viability, T/C [8] 87.7% | viability, T/C [9] 88.4% | viability, T/C [10] 89.5% | viability, T/C [11] 101% | viability, T/C [12] 91.9% | viability, T/C [13] 90.6% | viability, T/C [14] 93.2% | viability, T/C [15] 84.1% | viability, T/C [16] 85.5% | viability, T/C [17] 85.7% | viability, T/C [18] 78.8% | viability, T/C [19] 82.8% | viability, T/C [20] 75% | viability, T/C [21] 72.5% | viability, T/C [22] 73.1% | viability, T/C [23] 89.7% | viability, T/C [24] 81.7% | viability, T/C [25] 75.5% | viability, T/C [26] 62.9% | viability, T/C [27] 68.8% | viability, T/C [28] 73.8% | viability, T/C [29] 74.9% | viability, T/C [30] 68.5% | viability, T/C [31] 68.3% | viability, T/C [32] 71.4% | viability, T/C [33] 69% | viability, T/C [34] 68.8% | viability, T/C [35] 71.9% | viability, T/C [36] 61.8%
> 10 µM: IC50 (second compound 0.0316 µM) | IC50 (second compound 0.1 µM) | IC50 (second compound 0.316 µM) | IC50 (second compound 1 µM) | IC50 (second compound 3.16 µM) | IC50 (second compound 10 µM)
